Data reported in the supplement of paper PMC10307832.

Legend:
Assay in all cases: relative viability (nuclei count vs DMSO), 5 days (fraction); higher = more cells survive
CAP-232 + Bortezomib = compound: C[C@H]([C@@H](C(=O)N)NC(=O)[C@@H]1CSSC[C@@H](C(=O)N[C@H](C(=O)N[C@@H](C(=O)N[C@H](C(=O)N1)CCCCN)CC2=CNC3=CC=CC=C32)CC4=CC=C(C=C4)O)NC(=O)[C@@H](CC5=CC=CC=C5)N)O [CAP-232] + CC(C)C[C@H](NC(=O)[C@H](Cc1ccccc1)NC(=O)c1cnccn1)B(O)O [Bortezomib] (partner 0.002 µM)
How it was run: (§1)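 Nuclei were stained with Hoechst during a one-step fixation (final 0.05% Triton X-100, 1% formaldehyde, 1 ug/ml Hoechst) carried out 5 days after dosing, then counted on 4× images. The cells, lung cancer lines in 1536-well plates, had been dosed by pin tool the day after seeding with one drug alone or a fixed anchor-drug dose plus five library-drug doses (not always all listed) in √10 steps. Relative viability is the nuclei count in treated wells divided by that in vehicle wells, and each value is the median of duplicate plates.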

CAP-232 + Pictilisib = compound: C[C@H]([C@@H](C(=O)N)NC(=O)[C@@H]1CSSC[C@@H](C(=O)N[C@H](C(=O)N[C@@H](C(=O)N[C@H](C(=O)N1)CCCCN)CC2=CNC3=CC=CC=C32)CC4=CC=C(C=C4)O)NC(=O)[C@@H](CC5=CC=CC=C5)N)O [CAP-232] + CS(=O)(=O)N1CCN(Cc2cc3nc(-c4cccc5[nH]ncc45)nc(N4CCOCC4)c3s2)CC1 [Pictilisib] (partner 1 µM)
How it was run: as §1

CAP-232 + Crizotinib = compound: C[C@H]([C@@H](C(=O)N)NC(=O)[C@@H]1CSSC[C@@H](C(=O)N[C@H](C(=O)N[C@@H](C(=O)N[C@H](C(=O)N1)CCCCN)CC2=CNC3=CC=CC=C32)CC4=CC=C(C=C4)O)NC(=O)[C@@H](CC5=CC=CC=C5)N)O [CAP-232] + C[C@@H](Oc1cc(-c2cnn(C3CCNCC3)c2)cnc1N)c1c(Cl)ccc(F)c1Cl [Crizotinib] (partner 1 µM)
How it was run: as §1

CAP-232 + Linsitinib = compound: C[C@H]([C@@H](C(=O)N)NC(=O)[C@@H]1CSSC[C@@H](C(=O)N[C@H](C(=O)N[C@@H](C(=O)N[C@H](C(=O)N1)CCCCN)CC2=CNC3=CC=CC=C32)CC4=CC=C(C=C4)O)NC(=O)[C@@H](CC5=CC=CC=C5)N)O [CAP-232] + C[C@]1(O)C[C@@H](c2nc(-c3ccc4ccc(-c5ccccc5)nc4c3)c3c(N)nccn32)C1 [Linsitinib] (partner 1 µM)
How it was run: as §1

CAP-232 + Alpelisib = compound: C[C@H]([C@@H](C(=O)N)NC(=O)[C@@H]1CSSC[C@@H](C(=O)N[C@H](C(=O)N[C@@H](C(=O)N[C@H](C(=O)N1)CCCCN)CC2=CNC3=CC=CC=C32)CC4=CC=C(C=C4)O)NC(=O)[C@@H](CC5=CC=CC=C5)N)O [CAP-232] + Cc1nc(NC(=O)N2CCC[C@H]2C(N)=O)sc1-c1ccnc(C(C)(C)C(F)(F)F)c1 [Alpelisib] (partner 2 µM)
How it was run: as §1

| Cell Line | relative viability (CAP-232 + Bortezomib; first compound 0.4 µM) | relative viability (CAP-232 + Bortezomib; first compound 1.265 µM) | relative viability (CAP-232 + Bortezomib; first compound 4 µM) | relative viability (CAP-232 + Bortezomib; first compound 12.65 µM) | relative viability (CAP-232 + Pictilisib; first compound 0.4 µM) | relative viability (CAP-232 + Pictilisib; first compound 1.265 µM) | relative viability (CAP-232 + Pictilisib; first compound 4 µM) | relative viability (CAP-232 + Pictilisib; first compound 12.65 µM) | relative viability (CAP-232 + Crizotinib; first compound 0.4 µM) | relative viability (CAP-232 + Crizotinib; first compound 1.265 µM) | relative viability (CAP-232 + Crizotinib; first compound 4 µM) | relative viability (CAP-232 + Crizotinib; first compound 12.65 µM) | relative viability (CAP-232 + Linsitinib; first compound 0.4 µM) | relative viability (CAP-232 + Linsitinib; first compound 1.265 µM) | relative viability (CAP-232 + Linsitinib; first compound 4 µM) | relative viability (CAP-232 + Linsitinib; first compound 12.65 µM) | relative viability (CAP-232 + Alpelisib; first compound 0.4 µM) | relative viability (CAP-232 + Alpelisib; first compound 1.265 µM) | relative viability (CAP-232 + Alpelisib; first compound 4 µM) | relative viability (CAP-232 + Alpelisib; first compound 12.65 µM) |
| --- | --- | --- | --- | --- | --- | --- | --- | --- | --- | --- | --- | --- | --- | --- | --- | --- | --- | --- | --- | --- |
| NCI-H2023 | 1.02 | 1.03 | 1.07 | 0.237 | 0.253 | 0.231 | 0.271 | 0.133 | 0.837 | 0.548 | 0.693 | 0.292 | 0.659 | 0.615 | 0.697 | 0.249 | 0.711 | 0.592 | 0.637 | 0.237 |
| NCI-H2085 | 1.2 | 0.974 | 1 | 0.791 | 0.475 | 0.421 | 0.355 | 0.538 | 0.728 | 0.882 | 0.821 | 0.853 | 0.816 | 1.04 | 0.955 | 0.843 | 1.02 | 0.886 | 0.902 | 1.16 |
| NCI-H2087 | 1.01 | 0.746 | 1.14 | 0.462 | 0.791 | 0.983 | 0.929 | 0.484 | 0.929 | 0.809 | 0.967 | 0.819 | 0.894 | 0.955 | 0.924 | 0.541 | 0.983 | 1.17 | 0.929 | 0.841 |
| NCI-H2126 | 1.22 | 1.08 | 1.19 | 1.13 | 0.501 | 0.468 | 0.482 | 0.525 | 1.06 | 1.03 | 1.13 | 1.09 | 0.722 | 0.709 | 0.736 | 0.74 | 0.751 | 0.742 | 0.8 | 0.73 |
| NCI-H2228 | 0.9 | 0.977 | 1.21 | 0.74 | 0.381 | 0.768 | 0.369 | 0.269 | 0.637 | 0.407 | 0.526 | 0.461 | 0.596 | 0.581 | 0.521 | 0.646 | 0.816 | 0.572 | 0.777 | 0.848 |
| NCI-H2347 | 1.14 | 1.19 | 1.2 | 0.846 | 0.412 | 0.764 | 0.894 | 0.508 | 0.794 | 0.753 | 0.0086 | 0.544 | 0.989 | 0.967 | 1.04 | 1.01 | 0.966 | 0.993 | 0.986 | 0.995 |
| NCI-H2405 | 1 | 0.867 | 1.07 | 0.9 | 0.372 | 0.441 | 0.565 | 0.322 | 0.76 | 0.848 | 0.876 | 0.843 | 0.789 | 1.06 | 0.868 | 0.547 | 0.623 | 0.924 | 0.683 | 0.396 |
| NCI-H3122 | 1.01 | 1.05 | 0.896 | 1 | 0.399 | 0.573 | 0.568 | 0.566 | 0.274 | 0.313 | 0.308 | 0.277 | 0.991 | 0.979 | 1.01 | 1.08 | 0.735 | 0.76 | 0.838 | 0.84 |
| PC-3 [JPC-3] | 0.939 | 0.855 | 0.734 | 0.788 | 0.798 | 0.741 | 0.84 | 0.763 | 1.01 | 1.02 | 0.966 | 0.985 | 1.05 | 1 | 0.902 | 0.972 | 1.1 | 1.08 | 1.03 | 1.08 |
| PC-14 | 0.931 | 0.817 | 1.07 | 0.821 | 0.771 | 0.661 | 0.734 | 0.656 | 1.02 | 0.861 | 0.933 | 0.89 | 1.01 | 0.955 | 0.955 | 0.775 | 1.06 | 0.911 | 1.14 | 0.926 |
| RERF-LC-KJ | 1.16 | 1.15 | 1.44 | 0.987 | 0.563 | 0.623 | 0.538 | 0.42 | 0.944 | 0.919 | 0.851 | 0.829 | 1.01 | 0.886 | 0.933 | 0.854 | 0.951 | 0.693 | 0.833 | 0.816 |
| SK-LU-1 | 1.53 | 1.04 | 1.2 | 1.3 | 0.605 | 0.547 | 0.651 | 0.462 | 0.689 | 0.988 | 0.781 | 0.912 | 1.06 | 1.2 | 1.15 | 1.06 | 1 | 1.11 | 1.07 | 0.96 |
| SW 1573 | 0.951 | 1.03 | 0.927 | 0.974 | 0.437 | 0.587 | 0.54 | 0.395 | 0.785 | 0.803 | 0.642 | 0.81 | 0.751 | 0.781 | 0.731 | 0.683 | 0.744 | 0.861 | 0.8 | 0.672 |
| UMC-11 | 1.11 | 0.719 | 1.11 | 1.1 | 0.775 | 0.796 | 1 | 0.876 | 0.585 | 0.786 | 0.681 | 0.639 | 1.13 | 1 | 1.14 | 1.1 | 1.06 | 1.04 | 1.16 | 0.777 |
